Measured values taken from patent US10383880B2 (Reset Therapeutics, Inc., priority 2012, dated 2019).

test system: Per2-dLuc U2OS reporter cells; assay: Per2 assay for evaluating the potency of test compounds (high-throughput circadian assay); assay type: cell-based; conditions: Homo sapiens, U2OS, stable U2OS reporter cells harboring Per2-dLuc; luminescence monitored over 4-5 days at 35° C.
Method in brief: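 Compounds (0.5% DMSO final) were added right after serum-shock synchronization of Per2-dLuc U2OS reporter cells in minimal medium containing 1.0 mM beetle luciferin. Reporter luminescence was followed at 35 °C for 4–5 days to extract rhythm period, amplitude and phase, and EC50 values were obtained from these.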

In order of falling EC50:
1. O=S(=O)(CC1CCCCO1)N(Cc1ccco1)CC(O)Cn1c2ccccc2c2ccccc21 (centres unmarked) [Compound 18, N-(3-(9H-Carbazol-9-yl)-2-hydroxypropyl)-N-(furan-2-ylmethyl)-1-(tetrahydro-2H-pyran-2-yl)methanesulfonamide]  3.77 µM
2. CS(=O)(=O)N(CC(O)Cn1c2ccc(F)cc2c2cc(F)ccc21)c1ccc(OC(F)F)cc1 (centres unmarked) [Compound 206, N-(3-(3,6-Difluoro-9H-carbazol-9-yl)-2-hydroxypropyl)-N-(4-(difluoromethoxy)phenyl)methanesulfonamide]  2.85 µM
3. CS(=O)(=O)N(CC(O)Cn1c2ccccc2c2ccccc21)C1(C#N)CC1 (centres unmarked) [Compound 125, N-(3-(9H-Carbazol-9-yl)-2-hydroxypropyl)-N-(1-cyanocyclopropyl)methanesulfonamide]  2.61 µM
4. O=S(=O)(c1ccccc1)N(Cc1ccco1)CC(O)Cn1c2ccccc2c2ccccc21 (centres unmarked) [Compound 4, N-(3-(9H-Carbazol-9-yl)-2-hydroxypropyl)-N-(furan-2-ylmethyl)benzenesulfonamide]  2.5 µM
5. O=S(=O)(CC1CCCO1)N(Cc1ccco1)CC(O)Cn1c2ccccc2c2ccccc21 (centres unmarked) [Compound 19, N-(3-(9H-Carbazol-9-yl)-2-hydroxypropyl)-N-(furan-2-ylmethyl)-1-(tetrahydrofuran-2-yl)methanesulfonamide]  2.1 µM
6. CC(O)(CNS(C)(=O)=O)Cn1c2ccc(F)cc2c2cc(F)ccc21 (centres unmarked) [Compound 152, N-(3-(3,6-Difluoro-9H-carbazol-9-yl)-2-hydroxy-2-methylpropyl)methanesulfonamide]  1.91 µM
7. COCCS(=O)(=O)N(Cc1ccco1)CC(O)Cn1c2ccccc2c2ccccc21 (centres unmarked) [Compound 11, N-(3-(9H-Carbazol-9-yl)-2-hydroxypropyl)-N-(furan-2-ylmethyl)-2-methoxyethanesulfonamide]  1.79 µM
8. CC(C)N1CCCN(CC(O)Cn2c3ccc(F)cc3c3cc(F)ccc32)S1(=O)=O (centres unmarked) [Compound 217, 2-(3-(3,6-Difluoro-9H-carbazol-9-yl)-2-hydroxypropyl)-6-isopropyl-1,2,6-thiadiazinane-1,1-dioxide]  1.67 µM
9. O=S(=O)(C1CC1)N(Cc1ccco1)CC(O)Cn1c2ccccc2c2ccccc21 (centres unmarked) [Compound 16, N-(3-(9H-Carbazol-9-yl)-2-hydroxypropyl)-N-(furan-2-ylmethyl)cyclopropanesulfonamide]  1.67 µM
10. O=S1(=O)N(CC(O)Cn2c3ccc(F)cc3c3cc(F)ccc32)CCCN1C1CCCC1 (centres unmarked) [Compound 220, 2-(3-(3,6-Difluoro-9H-carbazol-9-yl)-2-hydroxypropyl)-6-cyclopentyl-1,2,6-thiadiazinane-1,1-dioxide]  1.66 µM
11. CS(=O)(=O)N(Cc1ccco1)CC(O)Cn1c2ccccc2c2c(F)cccc21 (centres unmarked) [Compound 239, N-(3-(4-Fluoro-9H-carbazol-9-yl)-2-hydroxy-propyl)-N-(furan-2-yl-methyl)methane-sulfonamide]  1.58 µM
12. CS(=O)(=O)N(CC(O)Cn1c2ccccc2c2ccccc21)C1CC(F)(F)C1 (centres unmarked) [Compound 133, N-(3-(9H-Carbazol-9-yl)-2-hydroxypropyl)-N-(3,3-difluorocyclobutyl)methanesulfonamide]  1.53 µM
13. O=S1(=O)Cc2ccccc2CN1CC(O)Cn1c2ccccc2c2ccccc21 (centres unmarked) [Compound 35, N-(3-(9H-Carbazol-9-yl)-2-hydroxypropyl)-3,4-dihydro-1H-benzo[d][1,2]thiazine 2,2-dioxide]  1.5 µM
14. Cc1ccccc1N(CC(O)Cn1c2ccccc2c2ccccc21)S(C)(=O)=O (centres unmarked) [Compound 62, N-(3-(9H-Carbazol-9-yl)-2-hydroxypropyl)-N-o-tolylmethanesulfonamide]  1.33 µM
15. CC(O)(CN(C1(C)CCCC1)S(C)(=O)=O)Cn1c2ccc(F)cc2c2cc(F)ccc21 (centres unmarked) [Compound 197, N-(3-(3,6-Difluoro-9H-carbazol-9-yl)-2-hydroxy-2-methylpropyl)-N-(1-methylcyclopentyl)methanesulfonamide]  0.873 µM
16. CC1(C)CCC(N(CC(O)Cn2c3ccccc3c3ccccc32)S(C)(=O)=O)CC1 (centres unmarked) [Compound 141, N-(3-(9H-Carbazol-9-yl)-2-hydroxypropyl)-N-(4,4-dimethylcyclohexyl)methanesulfonamide]  0.846 µM
17. CCN(CC(O)Cn1c2cc(F)ccc2c2ccc(F)cc21)S(C)(=O)=O (centres unmarked) [Compound 158, N-(3-(2,7-Difluoro-9H-carbazol-9-yl)-2-hydroxypropyl)-N-ethylmethanesulfonamide]  0.811 µM
18. O=S(=O)(Cc1ccccc1)N(Cc1ccco1)CC(O)Cn1c2ccccc2c2ccccc21 (centres unmarked) [Compound 14, N-(3-(9H-Carbazol-9-yl)-2-hydroxypropyl)-N-(furan-2-ylmethyl)-1-phenylmethanesulfonamide]  0.652 µM
19. CS(=O)(=O)N(CC(O)Cn1c2ccccc2c2ccccc21)c1ccc(Cl)cc1 (centres unmarked) [Compound 22, N-(3-(9H-Carbazol-9-yl)-2-hydroxypropyl)-N-(4-chlorophenyl)methanesulfonamide]  0.51 µM
20. CCCN(CC(O)Cn1c2ccc(F)cc2c2cc(F)ccc21)S(C)(=O)=O (centres unmarked) [Compound 153, N-(3-(3,6-Difluoro-9H-carbazol-9-yl)-2-hydroxypropyl)-N-propylmethanesulfonamide]  0.396 µM
21. CS(=O)(=O)N(CC(O)Cn1c2ccccc2c2ccccc21)CC1CCCCC1 (centres unmarked) [Compound 52, N-(3-(9H-Carbazol-9-yl)-2-hydroxypropyl)-N-(cyclohexylmethyl)methanesulfonamide]  0.306 µM
22. CS(=O)(=O)N(CC(O)Cn1c2ccccc2c2ccccc21)c1ccc(F)cc1 (centres unmarked) [Compound 24, N-(3-(9H-Carbazol-9-yl)-2-hydroxypropyl)-N-(4-fluorophenyl)methanesulfonamide]  0.21 µM
23. CCCN(CC(O)Cn1c2ccc(F)cc2c2ccc(F)cc21)S(C)(=O)=O (centres unmarked) [Compound 163, N-(3-(2,6-Difluoro-9H-carbazol-9-yl)-2-hydroxypropyl)-N-propylmethanesulfonamide]  0.206 µM
24. COC1CN(CC(O)Cn2c3ccc(F)cc3c3cc(F)ccc32)S(=O)(=O)C1 (centres unmarked) [Compound 181, 2-(3-(3,6-Difluoro-9H-carbazol-9-yl)-2-hydroxypropyl)-4-methoxyisothiazolidine-1,1-dioxide]  0.174 µM
25. O=S1(=O)CCCCN1CC(O)Cn1c2cc(F)ccc2c2ccc(F)cc21 (centres unmarked) [Compound 91, N-(3-(2,7-Difluoro-9H-carbazol-9-yl)-2-hydroxypropyl)-1,2-thiazinane 1,1-dioxide]  0.15 µM
26. CN(CC(O)Cn1c2ccccc2c2ccccc21)S(C)(=O)=O (centres unmarked) [Compound 32, N-(3-(9H-Carbazol-9-yl)-2-hydroxypropyl)-N-methylmethanesulfonamide]  0.1 µM
27. CC1CN(CC(O)Cn2c3ccc(F)cc3c3cc(F)ccc32)S(=O)(=O)C1 (centres unmarked) [Compound 194, 2-(3-(3,6-Difluoro-9H-carbazol-9-yl)-2-hydroxypropyl)-4-methylisothiazolidine-1,1-dioxide]  0.078 µM
28. O=S1(=O)CCCCN1CC(O)Cn1c2ccc(F)cc2c2cc(F)ccc21 (centres unmarked) [Compound 86, N-(3-(3,6-Difluoro-9H-carbazol-9-yl)-2-hydroxypropyl)-1,2-thiazinane 1,1-dioxide]  0.046 µM
29. O=S1(=O)CCCN1CC(O)Cn1c2cc(F)ccc2c2ccc(F)cc21 (centres unmarked) [Compound 92, N-(3-(2,7-Difluoro-9H-carbazol-9-yl)-2-hydroxypropyl)-isothiazolidine-1,1-dioxide]  0.04 µM
